From patent publication US20230227484A1, “PYRIMIDINE COMPOUND AS AXL INHIBITOR” (NANJING CHIA TAI TIANQING PHARMACEUTICAL CO., LTD., priority 2020, published 2023)

What was measured:
[1] = system: MV-4-11 (human myeloid monocytic leukemia cell line); assay: Proliferation inhibition activity of compounds to MV-4-11 cells (CellTiter-Glo); assay type: cell-based; details: MV4-11 cells, 72 h dosing
Method in brief: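 MV-4-11 cells, plated 24 h earlier, were exposed 72 h to compounds in 10-point 3-fold dilutions (0.5% DMSO final). Viability read by CellTiter-Glo luminescence; inhibition normalized to blank and untreated controls, IC50 from variable-slope log(inhibitor)-response fit.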

[2] = system: human acute monocytic leukemia cell MV-4-11 xenograft tumor; assay: In-vivo efficacy of compound for MV4-11 xenograft tumor model of nude mouse; details: MV4-11, po, once a day, end of experiment, MV-4-11 xenograft nude mice; for response vs control in vivo at 5 mg/kg/day / inhibition in vivo at 5 mg/kg/day: intragastric 5 mg/kg/d
Experimental: Inhibitory effects of a compound and a positive drug on the in-vivo tumor growth of a xenograft tumor model of a nude mouse on human acute monocytic leukemia cell MV-4-11 are tested.
MV-4-11 cells in a logarithmic growth phase are harvested, resuspended after cell counting, and adjusted in cell concentration to 7.0×10^7 cells/mL. The resuspended solution is injected into the right armpit of the nude mice subcutaneously. Each animal is inoculated with 200 μL (14×10^6 cells) of the suspended solution to establish a MV-4-11 xenograft tumor model. Afer the tumor volume reaches 100-300 mm^3, tumor-bearing mice in good health and similar tumor volume are selected.
The compound and the positive drug are vortexed with a suitable solvent and then ultrasonicated to completely dissolve the compound. Then, an appropriate volume of citric acid buffer is slowly added, and the mixed solution is vortexed to make the solution mixed uniformly to obtain administrative formulations having concentrations of 0.1, 0.5, and 1 mg-mL^−1.
Solvent control group: PEG400 & citric acid buffer (20:80, v:v).
The modeled mice are randomly divided into groups (n=6), and administrated with the relevant compounds and positive drugs on the day of grouping. After 21 days or after the tumor volume of the solvent control group reaches 2000 mm^3, the experiment is terminated (whichever reaches the index first), and the administration volume is 10 mL-kg^−1. Both the compound and the positive drug are administered by gavage, once a day. After the experiment starts, the tumor diameter and animal body weight are measured twice a week, and the tumor volume is calculated.
The tumor volume(TV) calculation formula is: tumor volume(mm^3)=l×w^2/2,
The calculation formula of relative tumor volume(RTV) is: RTV=TVt/TVinitial
The calculation formula of relative tumor proliferation rate (% T/C) is: % T/C=100%×(RTVT/RTVC)

[3] = Pharmacokinetic study of compounds on ICR mice; assay type: in vivo; details: mouse, po, male ICR mice, plasma; for Cmax / Tmax / half-life: 10 mg-kg^1 by gavage; for AUC(0-t): 10 mg/kg-kg^1 by gavage, read-out: AUC0-24
Experimental: Each compound is prepared with DMSO into a 10 mg/mL stock solution.
Preparation of mixed solvent: Tween 80: PEG400: Water=1:9:90 (v/v/v)
450 μl of the compound DMSO stock solution with a concentration of 10 mg/nmL is accurately sucked into a glass bottle, and added with an appropriate volume of DMSO and mixed solvent, wherein a ratio of the solvent in the final formulation is DMSO: mixed solvent (v/v)=10:90. The mixed solution is vortexed (or ultrasonically treated), and dispersed uniformly to obtain 4.5 mL. administration test solutions with a concentration of 1 mg/nL, respectively.
Male 6-10 week old ICR mice (sourced from: Beijing Vital River Laboratory Animal Technology Co., Ltd.) are taken, 6 mice in each group. The mice are fasted overnight and fed 4 h after the administration. On the day of the experiment, the mice are administrated with 10 mg-kg^1 of compound test solution by gavage. After administration, about 100 μL of blood is harvested from the orbits of the mice at 0 min, 5 mmn, 15 mmn, 30 min, 14 h 2 h, 4 h, 8 h, and 24 h, and placed in EDTA-K2 anticoagulant tubes. The whole blood sample is centrifuged at 1500 to 1600 g for 10 mm, and the plasma obtained by separation is stored in a refrigerator at −40 to −20° C. for biological sample analysis. The blood drug concentration is determined by an LC-MS/MS method.
A non-compartmental model in Pharsight Phoenix 7.0 is used to calculate pharmacokinetic parameters. The specific results are shown in 5 the table below.

[4] = read-out: Relative tumor proliferation rate (% T/C)
[5] = read-out: Tumor growth inhibition rate (TGI %)

IC50 [1] [nM] | Cmax [3] [ng/mL] | Tmax [3] [h] | half-life [3] [h] | AUC(0-t) [3] [ng·h/mL] | Structure (SMILES) | response vs control in vivo at 1 mg/kg/day ([2]; intragastric 1 mg/kg/d, read-out: Relative tumor proliferation rate (% T/C)) [%] | inhibition in vivo at 1 mg/kg/day ([2]; intragastric 1 mg/kg/d, read-out: Tumor growth inhibition rate (TGI %)) [%] | response vs control in vivo at 5 mg/kg/day [2, 4] [%] | inhibition in vivo at 5 mg/kg/day [2, 5] [%]
1.6 | 342 | 1 | 3.05 | 3540 | CNC(=O)c1cc(F)ccc1Nc1nc(Nc2ccc3c(c2)CC[C@@H](N2CCCC2)CC3)ncc1Cl [Example 19, (S)-2-((5-chloro-2-((7-(pyrrolidin-1-yl)-6,7,8,9-tetrahydro-5H-benzo[7]annulen-2-yl)amino)pyrimidin-4-yl)amino)-5-fluoro-N-methylhenzamide] | 28 | 78 | – | –
6.61 | 676 | 1 | 1.81 | 2200 | Cc1ccc(Nc2nc(Nc3ccc4c(c3)CC[C@@H](N3CCCC3)CC4)ncc2Cl)c(P(C)(C)=O)c1 [Example 53, (S)-(2-((5-chloro-2-((7-(pyrrolidin-1-yl)-6,7,8,9-tetrahydro-5H-benzo[7]annulen-2-yl)amino)pyrimidin-4-yl)amino)-5-methylphenyl) dimethyl phosphine oxide] | – | – | 31 | 79
5.49 | 349 | 0.25 | 3.33 | 1000 | CP(C)(=O)c1ccccc1Nc1nc(Nc2ccc3c(c2)CC[C@@H](N2CCCC2)CC3)ncc1Cl [Example 10, (S)-(2-((5-chloro-2-((7-(pyrrolidin-1-yl)-6,7,8,9-tetrahydro-5H-benzo[7]annulen-2-yl)amino)pyrimidin-4-yl)amino)phenyl)dimethyl phosphine oxide] | – | – | 3.7 | 106

The remaining lines, values behind:

Structure (SMILES) | IC50 [1] [nM] | Cmax [3] [ng/mL] | Tmax [3] [h] | half-life [3] [h] | AUC(0-t) [3] [ng·h/mL] | response vs control in vivo at 1 mg/kg/day ([2]; intragastric 1 mg/kg/d, read-out: Relative tumor proliferation rate (% T/C)) [%] | inhibition in vivo at 1 mg/kg/day ([2]; intragastric 1 mg/kg/d, read-out: Tumor growth inhibition rate (TGI %)) [%] | response vs control in vivo at 5 mg/kg/day [2, 4] [%] | inhibition in vivo at 5 mg/kg/day [2, 5] [%]
COCc1ccc(Nc2nc(Nc3ccc4c(c3)CC[C@@H](N3CCCC3)CC4)ncc2Cl)c(P(C)(C)=O)c1 [Example 115, (S)-(2-((5-chloro-2-((7-(pyrrolidin-1-yl)-6,7,8,9-tetrahydro-5H-benzo[7]annulen-2-yl)amino)pyrimidin-4-yl)amino)-5-(methoxymethyl)phenyl)dimethylphosphine oxide] | 6.97 | 324 | 2.17 | – | 1300 | – | – | 23 | 85
CP(C)(=O)c1c(Nc2nc(Nc3ccc4c(c3)CC[C@@H](N3CCCC3)CC4)ncc2Cl)ccc2nccnc12 [Example 47, (S)-(6-((5-chloro-2-((7-(pyrrolidin-1-yl)-6,7,8,9-tetrahydro-5H-benzo[7]annulen-2-yl)amino)pyrimidin-4-yl)amino)quinoxalin-5-yl)dimethyl phosphine oxide] | 5.24 | 69 | 1 | 2.06 | 307 | – | – | 15 | 94
